Assay results taken from patent US12162819B2, “Ionizable lipid compounds” (Beijing Jitai Pharmaceutical Technology Co., Ltd., priority 2022, dated 2024).

Tests used:
[1] = Particle size and PDI of lipid nanoparticles by dynamic light scattering; format: physicochemical; details: lipid nanoparticle with the cationic lipid, cholesterol, DSPC, DMG-PEG2000 (50/38.5/10/1.5 mol%), luciferase mRNA, N/P 6
Experimental: (§1) Lipid nanoparticles were prepared by (1) dissolving and mixing ionizable lipid compounds, cholesterol, phospholipids and polyethylene glycolated lipids in ethanol at (molar percentages) 50%, 38.5%, 10% and 1.5%, respectively; (2) dissolving the mRNA active ingredient in 25 mM sodium acetate solution (pH=4.5); (3) using an automated high-throughput microfluidic system to mix the organic phase containing the lipid mixture and the aqueous phase containing the mRNA component in the flow ratio range of 1:1 to 1:4 at a mixing speed of 10 mL/min to 18 mL/min; (4) the prepared lipid nanoparticles (N/P ratio of 6) were diluted with phosphate buffer solution and the nanoparticle solutions were ultrafiltered to the original preparation volume using ultrafiltration tubes (purchased from Millipore) with a cut-off molecular weight of 30 kDa; and (5) the obtained nanoparticles were filtered through a sterile 0.2 μm filter membrane and then stored in a sealed glass vial at low temperature.
(§2) The particle size and particle size dispersity index (PDI) of the prepared lipid nanoparticles were measured using a Zetasizer Pro (purchased from Malvern Instruments Ltd) and a DynaPro NanoStar (purchased from Wyatt) dynamic light scattering instrument. The degree of RNA encapsulation by lipid nanoparticles was characterized by the Encapsulation Efficiency %, which reflects the degree of binding of lipid nanoparticles to RNA fragments. This parameter was measured by the method of Quant-It™ RiboGreen RNA Assay (purchased from Invitrogen). Lipid nanoparticle samples were diluted in TE buffer (10 mM Tris-HCl, 1 mM EDTA, pH=7.5). A portion of the sample solution was removed, to which 0.5% Triton (Triton X-100) was added, and then allowed to stand at 37° C. for 30 minutes. Immediately after the addition of RIBOGREEN® reaction solution, the fluorescence values were read on a Varioskan LUX multifunctional microplate reader (purchased from Thermofisher) at 485 nm for absorption and 528 nm for emission to give the encapsulation efficiency values.

C57BL/6 mice = test: In vivo bioluminescence assay of lipid nanoparticles encapsulated with luciferase mRNA in mice; details: for Total photon count in vivo at 6 hours after administration (Total Flux): C57BL/6 mice, intravenous, single dose 0.5 mg/kg luciferase mRNA in LNP, group mean; for in vivo delivery efficiency compared with the molecule without tetramethyl: LNP with luciferase mRNA in mice, compound 20 vs. D1, compound 46 vs. D2
Experimental: as §1
The delivery effect and safety of nanoparticles encapsulated with luciferase mRNA (Trilink, L-7202) in mice were evaluated. The test mice were SPF-grade C57BL/6 mice, female, 6-8 weeks old, weighing 18-22 g, and were purchased from SPF (Beijing) Biotechnology Co., Ltd. All animals were acclimatized for more than 7 days prior to the experiment, and had free access to food and water during the experiment. The conditions include alternating light and dark for 12/12 h, the indoor temperature of 20-26° C. and the humidity of 40-70%. The mice were randomly grouped. The lipid nanoparticles encapsulated with luciferase mRNA prepared above were injected into mice by intravenous administration at a single dose of 0.5 mg/kg mRNA, and the mice were subjected to in vivo bioluminescence assay using a Small Animal In Vivo Imaging System (IVIS LUMINA III, purchased from PerkinElmer) at 6 h after administration. The assay was performed as follows: D-luciferin solution was prepared in saline at a concentration of 15 mg/mL, and each mouse was given the substrate by intraperitoneal injection. At ten minutes after administration of the substrate, the mice were anesthetized in an anesthesia chamber with isoflurane at a concentration of 2.5%. The anesthetized mice were placed in IVIS for fluorescence imaging, and data acquisition and analysis were performed on the concentrated distribution area of fluorescence.
The in vivo delivery efficiency of lipid nanoparticle carriers was expressed as the mean values of fluorescence intensity and total photon count in different animals within the same subject group, as shown in Table 5. Higher values of fluorescence intensity and total photon count indicate higher in vivo delivery efficiency of this mRNA fragment by lipid nanoparticles. The lipid nanoparticles containing the cationic lipids of the present disclosure have good in vivo delivery efficiency.

[2] = Encapsulation efficiency of lipid nanoparticles, Quant-It RiboGreen RNA Assay; format: physicochemical; details: lipid nanoparticle with the cationic lipid, luciferase mRNA
Experimental: as §1, §2

Particle size (nm) [1]	Particle size dispersity (PDI) [1]	Encapsulation efficiency (%) [2]	SMILES	Total photon count in vivo at 6 hours after administration (Total Flux) (C57BL/6 mice)	in vivo delivery efficiency compared with the molecule without tetramethyl (C57BL/6 mice)
157.10 nm	0.08	56.65%	CCCCCCCCCCNC(=O)C(C)(C)CCCCCC(CCCCCC(C)(C)C(=O)NCCCCCCCCCC)OC(=O)CN(C)C [Compound 13]	1.08E+06	–
99.61 nm	0.10	71.93%	CCCCCCCCCOC(=O)C(C)(C)CCCCCC(CCCCCC(C)(C)C(=O)OCCCCCCCCC)OC(=O)CCCN(C)C [Compound 20]	–	significantly increased in vivo delivery efficiency
55.39 nm	0.05	96.52%	CCCCCCCCC(CCCCCC)OC(=O)C(C)(C)CCCCCC(CCCCCC(C)(C)C(=O)OC(CCCCCC)CCCCCCCC)OC(=O)CCN(C)C (centres unmarked) [Compound 16]	3.97E+07	–
97.30 nm	0.09	95.68%	CCCCCCCCCOC(=O)C(C)(C)CCCCCC(CCCCCC(C)(C)C(=O)OCC(CCCCC)CCCCCCC)OC(=O)CCCN(C)C (centres unmarked) [Compound 46]	–	significantly increased in vivo delivery efficiency
306.07 nm	0.08	45.66%	CCCCCCCCCCNC(=O)C(C)(C)CCCCCC(CCCCCC(C)(C)C(=O)NCCCCCCCCCC)OC(=O)CCCN(C)C [Compound 14]	6.34E+07	–
88.33 nm	0.07	97.52%	CCCCCCCCCCSC(=O)C(C)(C)CCCCCC(CCCCCC(C)(C)C(=O)SCCCCCCCCCC)OC(=O)CCCCCN(C)C [Compound 36]	–	–
78.80 nm	0.05	94.67%	CCCCCCCCCCSC(=O)C(C)(C)CCCCCC(CCCCCC(C)(C)C(=O)SCCCCCCCCCC)OC(=O)C1CCN(C(C)C)CC1 [Compound 105]	–	–
133.76 nm	0.06	94.35%	CCCCCCCCCOC(=O)C(C)(C)CCCCCCC(CCCCCCC(C)(C)C(=O)OCC(CCCCC)CCCCCCC)OC(=O)CCCCN(C)C (centres unmarked) [Compound 126]	–	–
89.34 nm	0.07	85.02%	CCCCCCCCCN(CCCCCCCCC)C(=O)C(C)(C)CCCCCC(CCCCCC(C)(C)C(=O)N(CCCCCCCCC)CCCCCCCCC)OC(=O)CCN(C)C [Compound 12]	–	–
135.15 nm	0.19	67.96%	CCCCCCCCOC(=O)C(C)(C)CCCCCC(CCCCCC(C)(C)C(=O)OCCCCCCCC)OC(=O)CCCN(C)C [Compound 19]	–	–
96.69 nm	0.05	81.29%	CCCCCCC/C=C\COC(=O)C(C)(C)CCCCCC(CCCCCC(C)(C)C(=O)OC/C=C\CCCCCCC)OC(=O)CCCN(C)C [Compound 26]	–	–
83.10 nm	0.05	79.88%	CCCCCCC(CCCCCC)CCOC(=O)CCC(C)(C)CCCC(CCCC(C)(C)CCC(=O)OCCC(CCCCCC)CCCCCC)OC(=O)CCCN(C)C [Compound 128]	–	–
112.08 nm	0.06	57.87%	CCCCCCCC(CCCCCCC)COC(=O)CCC(C)(C)CCCC(CCCC(C)(C)CCC(=O)OCC(CCCCCCC)CCCCCCC)OC(=O)CCCN(C)C [Compound 129]	–	–
245.33 nm	0.20	79.63%	CCCCCCCCCOC(=O)CCCCCCC(CCCCCCC(=O)OCC(CCCCC)CCCCCCC)OC(=O)CCCN(C)C (centres unmarked) [Compound D2, reference compound]	–	–
95.69 nm	0.07	89.45%	CCCCCCCCCOC(=O)C(C)(C)CCCCCCC(CCCCCCC(C)(C)C(=O)OCC(CCCCC)CCCCCCC)OC(=O)CCCN(C)C (centres unmarked) [Compound 125]	–	–
236.90 nm	0.06	32.43%	CCCCC#CCCCCOC(=O)C(C)(C)CCCCCC(CCCCCC(C)(C)C(=O)OCCCCC#CCCCC)OC(=O)CCCN(C)C [Compound 25]	–	–
105.84 nm	0.04	88.67%	CCCCCCCCCCSC(=O)C(C)(C)CCCCCC(CCCCCC(C)(C)C(=O)SCCCCCCCCCC)OC(=O)CCN(C)C [Compound 33]	–	–
105.70 nm	0.05	88.99%	CCCCCC/C=C\CCOC(=O)C(C)(C)CCCCCC(CCCCCC(C)(C)C(=O)OCC/C=C\CCCCCC)OC(=O)CCCN(C)C [Compound 27]	–	–
121.41 nm	0.05	92.63%	CCCCCCCCCSC(=O)C(C)(C)CCCCCC(CCCCCC(C)(C)C(=O)SCCCCCCCCC)OC(=O)CC1CCN(C)CC1 [Compound 108]	–	–
46.49 nm	0.03	95.61%	CCCCCCCCC(CCCCCCCC)NC(=O)C(C)(C)CCCCCC(CCCCCC(C)(C)C(=O)NC(CCCCCCCC)CCCCCCCC)OC(=O)CCN(C)C [Compound 11]	–	–

SMILES	Particle size (nm) [1]	Particle size dispersity (PDI) [1]	Encapsulation efficiency (%) [2]	Total photon count in vivo at 6 hours after administration (Total Flux) (C57BL/6 mice)	in vivo delivery efficiency compared with the molecule without tetramethyl (C57BL/6 mice)
CCCCCCCCN(CCCCCCCC)CCOC(=O)C(C)(C)CCCCCC(CCCCCC(C)(C)C(=O)OCCN(CCCCCCCC)CCCCCCCC)OC(=O)CCN(C)C [Compound 15]	91.68 nm	0.06	84.78%	4.89E+08	–
CCCCCCCCCCOC(=O)C(C)(C)CCCCCC(CCCCCC(C)(C)C(=O)OCCCCCCCCCC)OC(=O)C1CCN(C)CC1 [Compound 99]	139.99 nm	0.05	90.69%	5.30E+09	–
CCCCCCCCCOC(=O)C(C)(C)CCCCCC(CCCCCC(C)(C)C(=O)OCCCCCCCCC)OC(=O)CC1CCN(CCO)CC1 [Compound 113]	112.65 nm	0.03	94.77%	3.59E+08	–
CCCCCCCCCSC(=O)C(C)(C)CCCCCC(CCCCCC(C)(C)C(=O)SCCCCCCCCC)OC(=O)CC1CCN(CCO)CC1 [Compound 110]	97.59 nm	0.01	92.65%	2.06E+08	–
CCCCCCCCCOC(=O)C(C)(C)CCCCCC(CCCCCC(C)(C)C(=O)OCC(CCCCC)CCCCCCC)OC(=O)CC1CCN(CCO)CC1 (centres unmarked) [Compound 114]	72.32 nm	0.04	93.41%	1.06E+08	–
CCCCCCCCCOC(=O)CC(C)(C)CCCCC(CCCCC(C)(C)CC(=O)OCCCCCCCCC)OC(=O)CCCN(C)C [Compound 97]	157.00 nm	0.25	93.72%	3.37E+09	–
